In US20240384350A1, “METHODS OF TREATING CANCER WITH KINASE INHIBITORS” (BOARD OF REGENTS, THE UNIVERSITY OF TEXAS SYSTEM, priority 2021, published 2024):

Legend:
Assay in all cases: Ba/F3 drug screening, Cell Titer Glo, IC50 Mut/WT
Assay type in all cases: cell-based
EGFR L858R/T790M/C797S = target: T1, EGFR L858R/T790M/C797S (Homo sapiens, UniProt P00533, C797S/L858R/T790M); conditions: T790M-like-3R, 72 hours
T1 construct: expressed in transfected cells; host or cells: Ba/F3

EGFR S768dupSVD V769M = target: T2, EGFR S768dupSVD V769M (Homo sapiens, UniProt P00533, INS768MDS/V769M); conditions: Ex20, 72 hours
T2 construct: expressed in transfected cells; host or cells: Ba/F3 cells, retroviral pBabe-Puro vector (vector made by GeneScript from EGFR S768dupSVD, c.2305G > A)

EGFR R776C = target: T3, EGFR R776C (Homo sapiens, UniProt P00533, R776C)
T3 construct: host or cells: Ba/F3

EGFR L858R S784F = target: T4, EGFR L858R S784F (Homo sapiens, UniProt P00533, L858R/S784F); conditions: Classical-Like, 72 hours
T4 construct: expressed in transfected cells; host or cells: Ba/F3 cells, retroviral pBabe-Puro vector (vector made by GeneScript from EGFR L858R)

EGFR L861R = target: T5, EGFR L861R (Homo sapiens, UniProt P00533, L861R); conditions: Classical-Like, 72 hours
T5 construct: expressed in transfected cells; host or cells: Ba/F3 cells, retroviral pBabe-Puro vector (vector made by GeneScript from EGFR WT)

EGFR Ex19del = target: T6, EGFR Ex19del (Homo sapiens, UniProt P00533, DEL746-750); conditions: Classical-Like, 72 hours
T6 construct: expressed in transfected cells; host or cells: Ba/F3 cells, retroviral pBabe-Puro vector
Procedure: (§1) Data represent the ratio of the IC50 value for a given TKI for cells with a classical-like EGFR mutation to the IC50 value for cells with wildtype EGFR.
(§2) Ba/F3 cell generation, drug screening, and IC50 approximations. Ba/F3 cells were obtained as a gift from Dr. Gordon Mills (MD Anderson Cancer Center), and maintained in RPMI (Sigma) containing 10% FBS, 1% penicillin/streptomycin, and 10 ng/ml recombinant mIL-3 (R&D Biosystems). To establish stable Ba/F3 cell lines, Ba/F3 cells were transduced with retroviruses containing mutant EGFR plasmids for 12-24 hours.
(§3) After 48-72 hours of transduction, 2 μg/ml puromycin (Invitrogen) was added to Ba/F3 cell lines in complete RPMI. To select for EGFR positive cell lines, cells were stained with PE-EGFR (Biolegend) and sorted by FACS. After sorting, EGFR positive cells were maintained in RPMI containing 10% FBS, 1% penicillin/streptomycin, and 1 ng/ml EGF to support cell viability. […] Shortly, cells were plated in 384-well plates (Greiner Bio-One) at 2000-3000 cells per well in technical triplicate. Seven different concentrations of TKIs or DMSO vehicle were added to reach a final volume of 40 μL per well. After 72 hours, 11 μL of Cell Titer Glo (Promega) was added to each well. Plates were incubated for a minimum of 10 minutes, and bioluminescence was determined using a FLUOstar OPTIMA plate reader (BMG LABTECH). Raw bioluminescence values were normalized to DMSO control treated cells, and values were plotted in GraphPad Prism. […] Drug screens were performed in technical triplicate on each plate and either duplicate or triplicate biological replicates.

EGFR L858R L718Q = target: T7, EGFR L858R L718Q (Homo sapiens, UniProt P00533, L718Q/L858R)
T7 construct: host or cells: Ba/F3

EGFR Ex19del G796S = target: T8, EGFR Ex19del G796S (Homo sapiens, UniProt P00533, DEL746-750/G796S)
T8 construct: expressed in transfected cells; host or cells: Ba/F3

EGFR L858R T790M L718V = target: T9, EGFR L858R T790M L718V (Homo sapiens, UniProt P00533, L718V/L858R/T790M); conditions: T790M-like-3R, 72 hours
T9 construct: expressed in transfected cells; host or cells: Ba/F3

EGFR L858R/T790M = target: T10, EGFR L858R/T790M (Homo sapiens, UniProt P00533, L858R/T790M); conditions: T790M-like-3S, 72 hours
T10 construct: expressed in transfected cells; host or cells: Ba/F3
Procedure: (§4) Data represent the ratio of the IC50 value for a given TKI for cells with a T790M-like-3S EGFR mutation to the IC50 value for cells with wildtype EGFR.
as §2
(§5) After 48-72 hours of transduction, 2 μg/ml puromycin (Invitrogen) was added to Ba/F3 cell lines in complete RPMI. To select for EGFR positive cell lines, cells were stained with PE-EGFR (Biolegend) and sorted by FACS. After sorting, EGFR positive cells were maintained in RPMI containing 10% FBS, 1% penicillin/streptomycin, and 1 ng/ml EGF to support cell viability. Drug screening was performed as previously described^41,42. Shortly, cells were plated in 384-well plates (Greiner Bio-One) at 2000-3000 cells per well in technical triplicate. Seven different concentrations of TKIs or DMSO vehicle were added to reach a final volume of 40 μL per well. After 72 hours, 11 μL of Cell Titer Glo (Promega) was added to each well. Plates were incubated for a minimum of 10 minutes, and bioluminescence was determined using a FLUOstar OPTIMA plate reader (BMG LABTECH). Raw bioluminescence values were normalized to DMSO control treated cells, and values were plotted in GraphPad Prism. […] Drug screens were performed in technical triplicate on each plate and either duplicate or triplicate biological replicates.

EGFR G719A T790M = target: T11, EGFR G719A T790M (Homo sapiens, UniProt P00533, G719A/T790M); conditions: T790M-like-3S, 72 hours
T11 construct: expressed in transfected cells; host or cells: Ba/F3

EGFR A763insFQEA = target: T12, EGFR A763insFQEA (Homo sapiens, UniProt P00533, INS763FQEA); conditions: Classical-Like, 72 hours
T12 construct: expressed in transfected cells; host or cells: Ba/F3 cells, retroviral pBabe-Puro vector

EGFR E709_T710del insD = target: T13, EGFR E709_T710del insD (Homo sapiens, UniProt P00533, DEL709-709/T710D)
T13 construct: expressed in transfected cells; host or cells: Ba/F3
Procedure: (§6) Data represent the ratio of the IC50 value for a given TKI for cells with a PACC EGFR mutation to the IC50 value for cells with wildtype EGFR.
as §2, §5

EGFR L858R = target: T14, EGFR L858R (Homo sapiens, UniProt P00533, L858R); conditions: Classical-Like, 72 hours
T14 construct: expressed in transfected cells; host or cells: Ba/F3 cells, retroviral pBabe-Puro vector
Procedure: as §1, §2, §3

EGFR Ex19del T790M = target: T15, EGFR Ex19del T790M (Homo sapiens, UniProt P00533, DEL746-750/T790M); conditions: T790M-like-3S, 72 hours
T15 construct: expressed in transfected cells; host or cells: Ba/F3
Procedure: as §4, §2, §5

EGFR Ex19del T790M L718V = target: T16, EGFR Ex19del T790M L718V (Homo sapiens, UniProt P00533, DEL746-750/L718V/T790M); conditions: T790M-like-3S, 72 hours
T16 construct: expressed in transfected cells; host or cells: Ba/F3

EGFR G719A L861Q = target: T17, EGFR G719A L861Q (Homo sapiens, UniProt P00533, G719A/L861Q)
T17 construct: expressed in transfected cells; host or cells: Ba/F3

EGFR Ex19del T790M C797S = target: T18, EGFR Ex19del T790M C797S (Homo sapiens, UniProt P00533, C797S/DEL746-750/T790M); conditions: T790M-like-3R, 72 hours
T18 construct: expressed in transfected cells; host or cells: Ba/F3

EGFR L718Q T790M = target: T19, EGFR L718Q T790M (Homo sapiens, UniProt P00533, L718Q/T790M); conditions: T790M-like-3R, 72 hours
T19 construct: expressed in transfected cells; host or cells: Ba/F3

EGFR R776H = target: T20, EGFR R776H (Homo sapiens, UniProt P00533, R776H)
T20 construct: host or cells: Ba/F3

EGFR L718Q = target: T21, EGFR L718Q (Homo sapiens, UniProt P00533, L718Q)
T21 construct: expressed in transfected cells; host or cells: Ba/F3

EGFR S768I V774M = target: T22, EGFR S768I V774M (Homo sapiens, UniProt P00533, S768I/V774M)
T22 construct: host or cells: Ba/F3
Procedure: as §6, §2, §5

EGFR Ex19del G724S = target: T23, EGFR Ex19del G724S (Homo sapiens, UniProt P00533, DEL746-750/G724S)
T23 construct: expressed in transfected cells; host or cells: Ba/F3

EGFR I740dupIPVAK = system: EGFR I740dupIPVAK
EGFR L833F = target: T24, EGFR L833F (Homo sapiens, UniProt P00533, L833F); conditions: Classical-Like, 72 hours
T24 construct: expressed in transfected cells; host or cells: Ba/F3 cells, retroviral pBabe-Puro vector

EGFR T725M = target: T25, EGFR T725M (Homo sapiens, UniProt P00533, T725M); conditions: Classical-Like, 72 hours
T25 construct: expressed in transfected cells; host or cells: Ba/F3 cells, retroviral pBabe-Puro vector (vector made by GeneScript from EGFR WT)

Row | SMILES | ratio of IC50 for cells with mutant EGFR to IC50 for cells with wildtype EGFR (Mut/WT) (EGFR L858R/T790M/C797S) | ratio of IC50 for cells with mutant EGFR to IC50 for cells with wildtype EGFR (Mut/WT) (EGFR S768dupSVD V769M) | ratio of IC50 for cells with mutant EGFR to IC50 for cells with wildtype EGFR (Mut/WT) (EGFR L858R S784F) | ratio of IC50 for cells with mutant EGFR to IC50 for cells with wildtype EGFR (Mut/WT) (EGFR L861R) | ratio of IC50 for cells with mutant EGFR to IC50 for cells with wildtype EGFR (Mut/WT) (EGFR Ex19del) | ratio of IC50 for cells with mutant EGFR to IC50 for cells with wildtype EGFR (Mut/WT) (EGFR L858R T790M L718V) | ratio of IC50 for cells with mutant EGFR to IC50 for cells with wildtype EGFR (Mut/WT) (EGFR L858R/T790M) | ratio of IC50 for cells with mutant EGFR to IC50 for cells with wildtype EGFR (Mut/WT) (EGFR G719A T790M) | ratio of IC50 for cells with mutant EGFR to IC50 for cells with wildtype EGFR (Mut/WT) (EGFR A763insFQEA) | ratio of IC50 for cells with mutant EGFR to IC50 for cells with wildtype EGFR (Mut/WT) (EGFR L858R) | ratio of IC50 for cells with mutant EGFR to IC50 for cells with wildtype EGFR (Mut/WT) (EGFR Ex19del T790M) | ratio of IC50 for cells with mutant EGFR to IC50 for cells with wildtype EGFR (Mut/WT) (EGFR Ex19del T790M L718V) | ratio of IC50 for cells with mutant EGFR to IC50 for cells with wildtype EGFR (Mut/WT) (EGFR Ex19del T790M C797S) | ratio of IC50 for cells with mutant EGFR to IC50 for cells with wildtype EGFR (Mut/WT) (EGFR L718Q T790M) | ratio of IC50 for cells with mutant EGFR to IC50 for cells with wildtype EGFR (Mut/WT) (EGFR L833F) | ratio of IC50 for cells with mutant EGFR to IC50 for cells with wildtype EGFR (Mut/WT) (EGFR T725M) | also measured
1 | COc1cc2ncnc(Nc3cccc(Cl)c3F)c2cc1OC(=O)N1CCN(C)C[C@H]1C [AZD3759] | 9.625 | 1.659 | 0.01546 | 0.03704 | 0.0001195 | 4.812 | 6.744 | 9.625 | 0.02225 | 0.00585 | 12.68 | 4.812 | 9.625 | 9.625 | 0.1249 | 0.1059 | ratio of IC50 for cells with mutant EGFR to IC50 for cells with wildtype EGFR (Mut/WT) (EGFR R776C; PACC, R776C, Ba/F3, 72 hours): 0.1522; ratio of IC50 for cells with mutant EGFR to IC50 for cells with wildtype EGFR (Mut/WT) (EGFR L858R L718Q; PACC, L858R L718Q, Ba/F3, 72 hours): 0.3765; ratio of IC50 for cells with mutant EGFR to IC50 for cells with wildtype EGFR (Mut/WT) (EGFR Ex19del G796S; PACC, Ex19del G796S, Ba/F3, 72 hours): 4.084; ratio of IC50 for cells with mutant EGFR to IC50 for cells with wildtype EGFR (Mut/WT) (EGFR E709_T710del insD; PACC, E709_T710del insD, Ba/F3, 72 hours): 0.2123; ratio of IC50 for cells with mutant EGFR to IC50 for cells with wildtype EGFR (Mut/WT) (EGFR G719A L861Q; PACC, G719A L861Q, Ba/F3, 72 hours): 0.07458; ratio of IC50 for cells with mutant EGFR to IC50 for cells with wildtype EGFR (Mut/WT) (EGFR R776H; PACC, R776H, Ba/F3, 72 hours): 0.02185; ratio of IC50 for cells with mutant EGFR to IC50 for cells with wildtype EGFR (Mut/WT) (EGFR L718Q; PACC, L718Q, Ba/F3, 72 hours): 1.696; ratio of IC50 for cells with mutant EGFR to IC50 for cells with wildtype EGFR (Mut/WT) (EGFR S768I V774M; PACC, S768I V774M, Ba/F3, 72 hours): 0.2555; ratio of IC50 for cells with mutant EGFR to IC50 for cells with wildtype EGFR (Mut/WT) (EGFR Ex19del G724S; PACC, Ex19del G724S, Ba/F3, 72 hours): 4.812; ratio of IC50 for cells with mutant EGFR to IC50 for cells with wildtype EGFR (Mut/WT) (EGFR I740dupIPVAK; PACC, I740dupIPVAK, Ba/F3, 72 hours): 0.08984
2 | Cc1cc(C(=O)Nc2nc3cccc(Cl)c3n2[C@@H]2CCCCN(C(=O)/C=C/CN(C)C)C2)ccn1 [Nazartinib] | 2.649 | 0.3262 | 0.03577 | 0.01121 | 0.0005409 | 0.6592 | 0.01957 | 0.02653 | 0.05676 | 0.017 | 0.01265 | 0.2594 | 5.557 | 0.317 | 0.0584 | 0.04541 | ratio of the IC50 value for cells with a PACC EGFR mutation to the IC50 value for cells with wildtype EGFR (EGFR R776C; Ba/F3 cells, EGFR R776C (PACC), Mut/WT): 0.2846; ratio of the IC50 value for cells with a PACC EGFR mutation to the IC50 value for cells with wildtype EGFR (EGFR L858R L718Q; Ba/F3 cells, EGFR L858R L718Q (PACC), Mut/WT): 0.6234; ratio of the IC50 value for cells with a PACC EGFR mutation to the IC50 value for cells with wildtype EGFR (EGFR Ex19del G796S; Ba/F3 cells, EGFR Ex19del G796S (PACC), Mut/WT): 0.6604; ratio of the IC50 value for cells with a PACC EGFR mutation to the IC50 value for cells with wildtype EGFR (EGFR E709_T710del insD; Ba/F3 cells, EGFR E709_T710del insD (PACC), Mut/WT): 0.1584; ratio of the IC50 value for cells with a PACC EGFR mutation to the IC50 value for cells with wildtype EGFR (EGFR G719A L861Q; Ba/F3 cells, EGFR G719A L861Q (PACC), Mut/WT): 0.06344; ratio of the IC50 value for cells with a PACC EGFR mutation to the IC50 value for cells with wildtype EGFR (EGFR R776H; Ba/F3 cells, EGFR R776H (PACC), Mut/WT): 0.03601; ratio of the IC50 value for cells with a PACC EGFR mutation to the IC50 value for cells with wildtype EGFR (EGFR L718Q; Ba/F3 cells, EGFR L718Q (PACC), Mut/WT): 1.245; ratio of the IC50 value for cells with a PACC EGFR mutation to the IC50 value for cells with wildtype EGFR (EGFR S768I V774M; Ba/F3 cells, EGFR S768I V774M (PACC), Mut/WT): 0.09563; ratio of the IC50 value for cells with a PACC EGFR mutation to the IC50 value for cells with wildtype EGFR (EGFR Ex19del G724S; Ba/F3 cells, EGFR Ex19del G724S (PACC), Mut/WT): 1.068; ratio of the IC50 value for cells with a PACC EGFR mutation to the IC50 value for cells with wildtype EGFR (EGFR I740dupIPVAK; Ba/F3 cells, EGFR I740dupIPVAK (PACC), Mut/WT): 0.1352
